A short description of one data set: in vitro. Format: cell-based, human. As to conditions: human, Table 8; 50% reduction in the level of ATP in HOS cells. The procedure, abridged:
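Cells exposed to compounds over a concentration range for 48 hrs at 37° C. Viability read as cellular ATP by luciferase (ATPlite) luminescence after lysis, normalised to untreated cells; CC50 derived by regression fit.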

The subject of data set [1] is HIV-1 constructs containing wild-type IN. The data set is described as follows: microbe, parasite or virus in culture. As to conditions: Human immunodeficiency virus 1; Table 8; WT IN; read-out: EC50 (nM, WT). Format: cell-based.
Data set [2] has as its system HIV-1 constructs containing mutant IN G140S-Q148H. The data set is described as follows: microbe, parasite or virus in culture. As to conditions: Human immunodeficiency virus 1; Table 8; read-out: EC50 (nM, IN mutants) G140S/Q148H. It counts as cell-based. The procedure, abridged:
(§1)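 Single-round infectivity assay using luciferase-reporter pNLNgoMIVR−ΔEnv.LUC virus carrying site-directed integrase mutants, produced in 293 cells. Activity normalized to infectivity without compound; EC50 from regression fit.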

Data set [3] has as its system HIV-1 constructs containing mutant IN N155H. The data set is described as follows: microbe, parasite or virus in culture. Format: cell-based. As to conditions: Human immunodeficiency virus 1; Table 8; read-out: EC50 (nM, IN mutants) N155H. In a few lines:
as §1

Data set [4] concerns HIV-1 constructs containing mutant IN Y143R. Put plainly: microbe, parasite or virus in culture. As to conditions: Human immunodeficiency virus 1; Table 8; read-out: EC50 (nM, IN mutants) Y143R. It counts as cell-based. In a few lines:
as §1

Data set [5] relates to HIV-1 constructs containing mutant IN G118R. Put plainly: microbe, parasite or virus in culture. The note with it: Human immunodeficiency virus 1; Table 8; read-out: EC50 (nM, IN mutants) G118R. It counts as cell-based. Here is the method: (§2) Single-Round HIV-1 Infectivity Assay.
(§3) Human embryonyl kidney cell culture cell line 293 was acquired from the American type Culture Collection (ATCC).
(§4) […]. […] The virus-containing supernatants were then harvested, clarified by low-speed centrifugation, filtrated, and diluted for preparation in infection assays. […] After compound incorporation and activation in the cell, 100 μL of virus-stock diluted to achieve a maximum luciferase signal between 0.2 and 1.5 RLUs was added to each well and further incubated at 37° C. for 48 hrs. […] Activity was normalized to infectivity in the absence of target compounds. KaleidaGraph (Synergy Software, Reading, Pa.) was used to perform regression analysis on the data. EC50 values were determined from the fit model.
(§5) pNLNgoMIVR^−ΔEnv.LUC has been described previously (Zhao et al. 2008). The integrase codon reading frame was removed from pNLNgoMIVR^−ΔEnv LUC (between KpnI and SalI sites) and placed between the KpnI and SalI sites of pBluescript II KS+. Using that construct as the wild-type template, we prepared the following HIV-1 Integrase-resistant mutants via the QuikChange II XL (Stratagene, La Jolla, Calif.) site-directed mutagenesis protocol: H51Y, T66I, E92Q, G118R, Y143R, Q148H, Q148K, N155H, R263K, G140S+Q148H, G140A+Q148K, E138K+Q148K, and H51Y+R263K. The following sense with cognate antisense (not shown) oligonucleotides (Integrated DNA Technologies, Coralville, Iowa) were used in the mutagenesis: H51Y, 5′-[…]-3; T66I, 5′-[…]-3′; E92Q, 5′-[…]-3′; G118R, 5′-[…]-3′; E138K, 5′-[…]-3; G140A, 5′-[…]-3; G140S, 5′-[…]-3′; Y143R, 5′-[…]-3′; Q148H, 5′-[…]-3′; Q148K, 5′-[…]-3; N155H, 5′-[…]-3′; R263K 5′-[…]-3′. The double mutation G140S+Q148H was constructed by using the previously generated Q148H mutant and the appropriate oligonucleotide for the 2nd mutation, G140S. The double mutation G140A+Q148K was made by using the Q148K mutant and the appropriate oligonucleotide for the 2nd mutation, G140A. The double mutation E138K+Q148K was made by using the Q148K mutant and the appropriate oligonucleotide for the 2nd mutation, E138K. The double mutation H51Y+R263K was constructed by using the previously generated H51Y mutant and the appropriate oligonucleotides for the 2nd mutation, R263K. The DNA sequence of each construct was verified independently by DNA sequence determination. The mutant integrase coding sequences from pBluescript II KS+ were then subcloned into pNLNgoMIVR^−ΔEnv LUC (between the KpnI and SalI sites) to produce the full-length mutant HIV-1 Integrase constructs. These DNA sequences were additionally checked independently by DNA sequence determination.

The subject of data set [6] is HIV-1 constructs containing mutant IN R263K. The data set is described as follows: Single-round HIV-1 infectivity assay, IN mutant R263K. It counts as cell-based. As to conditions: Human immunodeficiency virus 1; Table 8; read-out: EC50 (nM, IN mutants) R263K. Here is the method:
as §2, §3, §4, §5

As to `O=C(NCc1ccc(F)cc1F)c1c(NCCO)c2cc(CCCCCO)cnc2n(O)c1=O` [XZ437, N-(2,4-Difluorobenzyl)-1-hydroxy-4-((2-hydroxyethyl)amino)-6-(5-hydroxypentyl)-2-oxo-1,2-dihydro-1,8-naphthyridine-3-carboxamide], in the data set “in vitro”, the cytotoxic concentration (CC50) (usually the concentration giving 50% cytotoxicity) is > 250000 nM. Besides, the EC50 worked out at 13 nM in data set [1]; 15.5 nM in data set [2]; 15 nM in data set [3]; 11.6 nM in data set [4]; 23.9 nM in data set [5]; 18.1 nM in data set [6].
For the compound `COC(=O)CCc1cnc2c(c1)c(NCCO)c(C(=O)NCc1ccc(F)cc1F)c(=O)n2O` [XZ438, Methyl 3-(6-((2,4-difluorobenzyl)carbamoyl)-8-hydroxy-5-((2-hydroxyethyl)amino)-7-oxo-7,8-dihydro-1,8-naphthyridin-3-yl)propanoate], the CC50 in “in vitro” is > 250000 nM. The EC50 was 4.1 ± 1 nM in data set [1]; 15.9 nM in data set [2]; 3.9 nM in data set [3]; 3.8 nM in data set [4]; 4.8 nM in data set [5]; 6.5 nM in data set [6].
Turning to `O=C(NCc1ccc(F)cc1F)c1c(O)c2c(CO)ccnc2n(O)c1=O` [XZ440, N-(2,4-Difluorobenzyl)-1,4-dihydroxy-5-(hydroxymethyl)-2-oxo-1,2-dihydro-1,8-naphthyridine-3-carboxamide], the CC50 in the data set “in vitro” was > 250000 nM. Besides, the EC50 in data set [1] amounted to 7.3 nM; in data set [2], 14.7 nM; in data set [3], 14.9 nM; in data set [4], 2.6 nM; in data set [5], 23 nM; in data set [6] it was 4 ± 1.4 nM.

For the origin of these results see US9676771B2, “Compounds for inhibiting drug-resistant strains of HIV-1 integrase” (priority 2013, dated 2017).
